Results as given in patent US20220185818A1, “PYRROLOHETEROCYCLIC DERIVATIVE, PREPARATION METHOD THEREFOR, AND APPLICATION THEREOF IN MEDICINE” (Jiangsu Hengrui Medicine Co., Ltd., priority 2019, published 2022).

How the values were obtained:
ERK2 = biological target: T1, ERK2 (Homo sapiens, UniProt P28482); assay: ERK2 enzyme activity test (ADP-Glo Kinase Assay); type: biochemical; settings: read-out: IC50 value of the inhibition on ERK2 enzyme activity
T1 construct: purchased R&D 1879-KS-010
Experimental: (§1) The purpose of this experiment is to detect the inhibitory ability of the compounds on the ERK2 enzyme activity, and evaluate the in vitro activity of the compounds based on the IC50. The ADP-Glo™ Kinase Assay Kit is used in this experiment. Under the action of the enzyme, the substrate is phosphorylated and ADP is produced at the same time. The ADP-Glo reagent is added to remove the unreacted ATP in the reaction system, and the ADP produced by the reaction is detected by the kinase detection reagent. In the presence of the compound, the inhibition rate of the compound is calculated by measuring the signal value.
(§2) ATP was diluted to 500 μM with the buffer. The compound was dissolved in DMSO to prepare a stock solution with an initial concentration of 20 mM, and then Bravo (SGC120TH34702, Agilent Technologies) was used to dilute the stock solution to desired concentrations. Finally, a 3 μL of a mixed solution of enzyme and substrate, and 1 μL of different concentrations of the compound (the initial concentration is 50 μM, 4-fold dilution) were added to each well of the 384-well plate, and the plate was incubated at 30° C. for 10 minutes, and finally 1 μL of 500 μM ATP solution was added to each well, and the plate was incubated at 30° C. for 2 hours. Then 5 μL of ADP-Glo was added, and the plate was incubated at 30° C. for 40 minutes. Then 10 μL of kinase detection buffer was added, and the plate was incubated at 30° C. for 40 minutes. The 384-well plate was taken out and placed in a microplate reader (BMG labtech, PHERAstar FS), and the chemiluminescence was measured by the microplate reader.
(§3) Microsoft Excel, Graphpad Prism 5 was used to process and analyze the data.

[1] = Pharmacokinetics assay in mice; type: in vivo; settings: female, mouse, po, C57 mice, intragastrical administration, 2 mg/kg, plasma; for Vd/F: read-out: Apparent distribution volume Vz/F; for AUC: read-out: Area under curve AUC; for CL/F: read-out: Clearance CLz/F; for half-life: read-out: Half-life T1/2 (converted); for Cmax: read-out: Plasma concentration Cmax; for MRT: read-out: Residence time MRT
Experimental: Mice were used as test animals. […] The pharmacokinetic behavior of the compounds of the present disclosure was studied in mice, and the pharmacokinetic characteristics were evaluated.
2.2 Test Animals Thirty-six C57 mice (female, equally divided into 4 groups) were purchased from Shanghai Jiesijie Laboratory Animal Co., LTD.
A certain amount of the test compound was weighed and dissolved by the addition of 5% of DMSO and 5% of tween 80. Then 90% of normal saline were added to prepare a 0.1 mg/mL colorless, clear and transparent solution.
After an overnight fast, C57 mice were intragastrically administered the test compound at a dosage of 2 mg/kg and a volume of 0.2 ml/10 g.
The mice were intragastrically administered the test compounds. 0.1 ml of blood was taken before the administration and at 0.25, 0.5, 1.0, 2.0, 4.0, 6.0, 8.0, 11.0 and 24.0 hours after the administration. The samples were stored in heparinized tubes, and centrifuged for 10 minutes at 3500 rpm to separate the blood plasma. The plasma samples were stored at −20° C.
The content of the test compound in the plasma of mice after intragastrical administration of the test compound at different concentrations was determined: 25 μL of […] plasma at each time point after the administration was taken, followed by the addition of 50 μL of the internal standard camptothecin solution (National Institutes for Food and Drug Control of China) and 200 μL of acetonitrile. The resulting solution was vortex-mixed for 5 minutes, and centrifuged for 10 minutes (4000 rpm). 4 μL of the supernatant was taken from the plasma samples for LC/MS/MS analysis.

Colo205 cells = assay: In vitro proliferation inhibition test on Colo205 tumor cells (CellTiter-Glo); type: cell-based; settings: Homo sapiens, COLO 205, 72 h; 3 days of culture, CTG; read-out: IC50 value of the inhibition on in vitro Colo205 tumor cell proliferation
Experimental: The purpose of this experiment is to test the inhibitory activity of the compounds on the proliferation of Colo205 cells (CCL-222, ATCC) in vitro. The cells were treated in vitro with different concentrations of the compounds. After 3 days of culture, the cell proliferation was tested with CTG (CellTiter-Glo® Luminescent Cell Viability Assay, Promega, Catalog No. G7573) reagent, and the in vitro activity of the compounds was evaluated according to the IC50 value.
In the following, taking the in vitro proliferation inhibition test method of Colo205 cells as an example, the method in the present disclosure for testing the in vitro proliferation inhibitory activity of the compounds of the present disclosure is described. This method is also applicable to, but not limited to, the in vitro proliferation inhibitory activity test on other tumor cells.
Colo205 cells were digested, centrifuged and then resuspended. The single cell suspension was mixed well, and the density of viable cells was adjusted to 5.0×10^4 cells/ml with cell culture medium (RPMI1640+2% FBS), and 95 μl/well was added to a 96-well cell culture plate. Only 100 μl medium was added to the peripheral wells of the 96-well plate. The culture plate was incubated in an incubator for 24 hours (37° C., 5% CO2).
The compound was dissolved in DMSO and prepared into a stock solution with an initial concentration of 20 mM. The initial concentration of the small molecule compound was 2 mM, and then 4-fold diluted into 9 points, and the 10th point is DMSO. Another 96-well plate was taken and 90 μl of cell culture medium (RPMI1640+2% FBS) was added to each well, then 10 μl of different concentrations of the test sample was added to each well. The mixture was mixed well, and then 5 μL of different concentrations of the test sample was added to the cell culture plate with duplicate well for each sample. The culture plate was incubated in an incubator for 3 days (37° C., 5% CO2). The 96-well cell culture plate was taken out, 50 μL CTG solution was added to each well, and the plate was incubated for 10 minutes at room temperature. In a microplate reader (BMG labtech, PHERAstar FS), chemiluminescence was measured with the microplate reader.
as §3

ERK1 = biological target: T2, ERK1 (Homo sapiens, UniProt P27361); assay: ERK1 enzyme activity test (ADP-Glo Kinase Assay); type: biochemical; settings: read-out: IC50 value of the inhibition on ERK1 enzyme activity
T2 construct: purchased R&D 1879-KS-010
T2 sequence (P27361 whole entry): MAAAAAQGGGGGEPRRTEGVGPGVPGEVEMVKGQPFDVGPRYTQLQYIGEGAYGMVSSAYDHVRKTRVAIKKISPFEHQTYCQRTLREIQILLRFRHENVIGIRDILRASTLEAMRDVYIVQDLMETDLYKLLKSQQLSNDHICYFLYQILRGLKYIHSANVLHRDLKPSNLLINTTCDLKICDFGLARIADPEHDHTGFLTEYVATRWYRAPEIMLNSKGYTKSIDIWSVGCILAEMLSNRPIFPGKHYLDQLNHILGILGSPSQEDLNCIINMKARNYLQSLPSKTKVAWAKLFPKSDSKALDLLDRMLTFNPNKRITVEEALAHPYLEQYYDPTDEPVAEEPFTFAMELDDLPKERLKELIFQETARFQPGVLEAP
Experimental: as §1, with “the ERK1” for “the ERK2”, “detected with” for “detected by”
as §2, with “diluted to 300 μM with” for “diluted to 500 μM with”, “Finally, a […] of” for “Finally, a 3 μL of”, “and 1 μL, of different” for “and 1 μL of different”, “μL of 300 μM ATP” for “μL of 500 μM ATP”, “μL of Kinase detection buffer” for “μL of kinase detection buffer”
as §3

T1 sequence (P28482 2-360 limits assumed): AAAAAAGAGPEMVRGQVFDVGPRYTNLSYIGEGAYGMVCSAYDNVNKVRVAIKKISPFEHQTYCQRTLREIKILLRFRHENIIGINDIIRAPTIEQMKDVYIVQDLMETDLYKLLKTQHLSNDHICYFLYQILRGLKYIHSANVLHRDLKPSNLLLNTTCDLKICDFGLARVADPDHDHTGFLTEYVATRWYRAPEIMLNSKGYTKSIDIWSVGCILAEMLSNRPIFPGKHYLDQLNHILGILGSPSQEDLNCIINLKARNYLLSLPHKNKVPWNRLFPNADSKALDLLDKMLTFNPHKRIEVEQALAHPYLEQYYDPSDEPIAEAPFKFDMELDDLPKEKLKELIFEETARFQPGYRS

Structure (SMILES) | IC50 (ERK2) [nM] | Vd/F [1] [L/kg] | AUC [1] [ng·h/mL] | CL/F [1] [mL/min/kg] | half-life [1] [h] | Cmax [1] [ng/mL] | MRT [1] [h] | IC50 (Colo205 cells) [nM] | IC50 (ERK1) [nM]
Cn1nccc1Nc1nccc(-c2cc3n(c2)C(=O)N([C@H](CO)c2ccc(Cl)c(F)c2)C3)n1 [Example 20, (S)-2-(1-(3-Fluoro-4-chlorophenyl)-2-hydroxyethyl)-6-(2-((1-methyl-1H-pyrazol-5-yl)amino)pyrimidin-4-yl)-1H-pyrrolo[1,2-c]imidazol-3(2H)-one] | 18 | 1.41 | 7630 | 4.37 | 3.73 | 1540 | 4.95 | 68 | 30
Cc1cccc([C@@H](CO)N2Cc3cc(-c4ccnc(Nc5ccnn5C)n4)cn3C2=O)c1 [Example 15, (S)-2-(2-Hydroxy-1-(m-tolyl)ethyl)-6-(2-((1-methyl-1H-pyrazol-5-yl)amino)pyrimidin-4-yl)-1H-pyrrolo[1,2-c]imidazol-3(2H)-one] | 5 | 2.13 | 3700 | 9 | 2.74 | 816 | 3.3 | 55 | 5
Cn1nccc1Nc1nccc(-c2cc3n(c2)C(=O)N([C@H](CO)c2cccc(Cl)c2)C3)n1 [Example 10, (S)-2-(1-(3-Chlorophenyl)-2-hydroxyethyl)-6-(2-((1-methyl-1H-pyrazol-5-yl)amino)pyrimidin-4-yl)-1,2-dihydro-3H-pyrrolo[1,2-c]imidazol-3-one] | 7 | 3.07 | 3440 | 9.69 | 3.66 | 1020 | 3.47 | 62 | 5
